Consider 40 compounds from patent US10544143B2, “4-azaindole compounds” (BRISTOL-MYERS SQUIBB COMPANY, priority 2017, dated 2020).

The target of experiment [1] is human TLR8 (Homo sapiens (Human), UniProt Q9NR97). Briefly: TLR8 inhibition reporter assay (HEK-Blue SEAP).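 Further: SEAP driven by IFN-β minimal promoter carrying NF-κB and AP-1 sites, compounds dosed 0.05 nM to 50 µM for 22 h, inhibition scaled between agonist-plus-DMSO and reference-inhibitor wells.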 To be noted: R848 15.9 μM. (In general: In a reporter assay the amount or activity of a reporter protein is the signal.)
Sequence of human TLR8 (Q9NR97 27-1041): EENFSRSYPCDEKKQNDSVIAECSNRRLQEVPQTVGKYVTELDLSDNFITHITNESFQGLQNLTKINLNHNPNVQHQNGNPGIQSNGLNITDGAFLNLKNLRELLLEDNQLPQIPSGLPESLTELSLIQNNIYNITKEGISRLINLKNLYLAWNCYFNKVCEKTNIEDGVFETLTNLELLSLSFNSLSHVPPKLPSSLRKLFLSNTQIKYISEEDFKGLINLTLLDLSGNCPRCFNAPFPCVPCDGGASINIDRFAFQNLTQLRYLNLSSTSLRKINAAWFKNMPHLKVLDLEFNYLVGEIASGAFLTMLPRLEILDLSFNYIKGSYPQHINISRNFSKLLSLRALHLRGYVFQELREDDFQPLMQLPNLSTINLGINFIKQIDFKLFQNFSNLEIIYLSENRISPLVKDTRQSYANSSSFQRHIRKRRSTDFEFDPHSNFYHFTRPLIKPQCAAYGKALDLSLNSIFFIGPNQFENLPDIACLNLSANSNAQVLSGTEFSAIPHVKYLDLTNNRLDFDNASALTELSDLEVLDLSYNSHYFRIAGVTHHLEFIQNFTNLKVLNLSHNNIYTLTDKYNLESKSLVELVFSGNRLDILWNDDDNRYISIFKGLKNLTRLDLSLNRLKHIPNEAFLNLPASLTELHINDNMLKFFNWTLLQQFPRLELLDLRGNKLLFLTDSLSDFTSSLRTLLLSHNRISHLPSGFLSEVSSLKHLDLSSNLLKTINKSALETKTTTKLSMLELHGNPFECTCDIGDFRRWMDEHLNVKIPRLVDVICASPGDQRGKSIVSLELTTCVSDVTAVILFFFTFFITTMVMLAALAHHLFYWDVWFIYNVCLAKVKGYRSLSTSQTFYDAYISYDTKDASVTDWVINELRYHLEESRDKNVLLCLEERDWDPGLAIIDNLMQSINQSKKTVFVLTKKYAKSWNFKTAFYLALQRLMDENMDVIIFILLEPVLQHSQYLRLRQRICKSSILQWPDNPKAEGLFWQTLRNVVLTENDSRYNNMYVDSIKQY
The target in experiment [2] is human TLR7 (Homo sapiens (Human), UniProt Q9NYK1). The experiment can be described thus: TLR7 inhibition reporter assay (HEK-Blue SEAP). In kind it is cell-based. To be noted: HEK-Blue human TLR7 cells, gardiquimod 7.5 μM.
Sequence of human TLR7 (Q9NYK1 27-1049): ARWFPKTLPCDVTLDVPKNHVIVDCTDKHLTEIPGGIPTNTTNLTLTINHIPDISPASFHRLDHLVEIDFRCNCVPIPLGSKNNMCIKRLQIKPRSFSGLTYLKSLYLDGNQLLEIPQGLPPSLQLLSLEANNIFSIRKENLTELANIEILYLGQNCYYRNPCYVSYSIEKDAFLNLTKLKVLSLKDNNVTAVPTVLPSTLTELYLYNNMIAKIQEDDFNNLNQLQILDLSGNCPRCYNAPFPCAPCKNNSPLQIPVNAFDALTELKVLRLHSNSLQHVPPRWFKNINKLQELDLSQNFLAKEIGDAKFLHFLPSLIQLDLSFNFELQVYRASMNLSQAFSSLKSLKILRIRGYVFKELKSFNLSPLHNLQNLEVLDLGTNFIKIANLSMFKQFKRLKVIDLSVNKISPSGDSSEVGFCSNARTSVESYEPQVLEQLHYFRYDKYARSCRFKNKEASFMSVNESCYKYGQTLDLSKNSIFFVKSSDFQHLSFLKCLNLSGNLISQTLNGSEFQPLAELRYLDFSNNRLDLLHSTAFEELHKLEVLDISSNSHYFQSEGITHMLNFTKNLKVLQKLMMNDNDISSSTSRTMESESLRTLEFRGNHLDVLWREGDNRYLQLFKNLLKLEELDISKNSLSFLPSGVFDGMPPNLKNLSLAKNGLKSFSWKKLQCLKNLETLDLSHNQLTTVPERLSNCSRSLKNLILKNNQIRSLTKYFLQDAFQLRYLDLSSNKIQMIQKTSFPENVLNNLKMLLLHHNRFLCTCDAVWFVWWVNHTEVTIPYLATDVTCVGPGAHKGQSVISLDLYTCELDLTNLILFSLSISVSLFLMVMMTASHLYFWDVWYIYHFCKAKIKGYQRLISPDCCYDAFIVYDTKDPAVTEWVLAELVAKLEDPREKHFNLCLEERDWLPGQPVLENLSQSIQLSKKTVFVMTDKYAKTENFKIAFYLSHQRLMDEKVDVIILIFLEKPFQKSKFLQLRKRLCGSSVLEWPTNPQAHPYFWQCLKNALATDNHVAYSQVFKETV
Experiment [3] deals with human TLR9 (Homo sapiens (Human), UniProt Q9NR96). The experiment can be described thus: TLR9 inhibition reporter assay (HEK-Blue SEAP).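 Further: SEAP driven by an IFN-β minimal promoter with NF-κB and AP-1 sites, read after 22 h, compounds dosed 0.05 nM–50 µM, inhibition scaled between agonist plus DMSO and reference-inhibitor wells.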 To be noted: ODN2006 5 nM.
Sequence of human TLR9 (Q9NR96 26-1032): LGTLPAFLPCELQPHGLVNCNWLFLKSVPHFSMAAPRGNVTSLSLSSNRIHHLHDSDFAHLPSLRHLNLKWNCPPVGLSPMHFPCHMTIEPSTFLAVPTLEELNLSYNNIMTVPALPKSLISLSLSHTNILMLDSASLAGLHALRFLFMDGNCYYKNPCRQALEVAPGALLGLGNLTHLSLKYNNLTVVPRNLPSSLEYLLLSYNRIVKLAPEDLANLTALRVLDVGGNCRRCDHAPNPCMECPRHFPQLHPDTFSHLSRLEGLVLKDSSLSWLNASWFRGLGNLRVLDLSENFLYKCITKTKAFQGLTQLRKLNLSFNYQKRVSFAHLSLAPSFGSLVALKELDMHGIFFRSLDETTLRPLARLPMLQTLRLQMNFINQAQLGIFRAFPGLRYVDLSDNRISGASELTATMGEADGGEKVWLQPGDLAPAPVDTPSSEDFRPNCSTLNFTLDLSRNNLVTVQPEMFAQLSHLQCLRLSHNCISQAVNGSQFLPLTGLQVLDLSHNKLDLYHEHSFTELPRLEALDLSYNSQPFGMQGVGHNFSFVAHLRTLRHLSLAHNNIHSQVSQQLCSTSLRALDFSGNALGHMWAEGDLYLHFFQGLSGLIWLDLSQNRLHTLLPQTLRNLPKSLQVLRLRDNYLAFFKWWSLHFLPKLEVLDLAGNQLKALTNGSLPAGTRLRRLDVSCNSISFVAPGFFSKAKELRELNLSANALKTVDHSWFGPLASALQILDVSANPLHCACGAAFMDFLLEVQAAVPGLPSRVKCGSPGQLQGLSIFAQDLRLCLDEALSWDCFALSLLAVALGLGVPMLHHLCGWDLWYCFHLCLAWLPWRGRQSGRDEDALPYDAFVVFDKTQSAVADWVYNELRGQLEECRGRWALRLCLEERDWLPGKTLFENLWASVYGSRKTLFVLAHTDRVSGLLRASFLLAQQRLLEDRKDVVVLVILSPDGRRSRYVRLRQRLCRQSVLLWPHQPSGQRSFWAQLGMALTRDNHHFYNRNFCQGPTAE
The mark [4] stands for this setting: read-out: TLR8 IC50, HEK-Blue human TLR8 cells.
[5] abbreviates: read-out: TLR9 IC50, HEK-Blue human TLR9 cells.

Molecules are shown by their SMILES. Like-named read-outs stand apart in the source and are kept apart here.

For orientation: IC50 means the midpoint of a concentration-inhibition curve. As to `[2H]C1([2H])NC([2H])([2H])C([2H])([2H])N(c2ccc3[nH]c(-c4cn5ncnc5c(C)c4C)c(C(C)C)c3n2)C1([2H])[2H]` [Example 857], the IC50 worked out at 0.4 nM in experiment [1] (TLR8 IC50, HEK-Blue human TLR8 cells); 0.65 nM in experiment [2]; 4400 nM in experiment [3] (TLR9 IC50, HEK-Blue human TLR9 cells).
Take `Cc1c(-c2[nH]c3ccc(N4C[C@@H](C)N(C(=O)CCN(C)C)[C@@H](C)C4)nc3c2C(C)C)cn2ncnc2c1C` [Example 860]: the IC50 is 0.62 nM in experiment [1] (setting [4]), 0.3 nM in experiment [2] and 5060 nM in experiment [3] (setting [5]).
For `Cc1c(-c2[nH]c3ccc(N4[C@H](C)CNC[C@H]4C)nc3c2C(C)C)cn2ncnc2c1C` [Example 861], the values for the IC50 in experiment [1] (setting [4]), in experiment [2] and in experiment [3] (setting [5]) were 4.2 nM, 0.31 nM and 5010 nM, respectively.
Regarding `Cc1c(-c2[nH]c3ccc(N4C[C@@H](C)N(C(=O)CN(C)C)[C@@H](C)C4)nc3c2C(C)C)cn2ncnc2c1C` [Example 862], the IC50 in experiment [1] (setting [4]) was 2.2 nM; in experiment [2], 0.29 nM; in experiment [3] (setting [5]) it was 7040 nM.
`Cc1c(-c2[nH]c3ccc(N4[C@H](C)CN(C(=O)CN(C)C)C[C@H]4C)nc3c2C(C)C)cn2ncnc2c1C` [Example 863]: the results for the IC50 in experiment [1] (setting [4]), in experiment [2] and in experiment [3] (setting [5]) were 17 nM, 0.52 nM and 6060 nM, respectively.
Turning to `Cc1c(-c2[nH]c3ccc(N4[C@H](C)CN(C(=O)CCN(C)C)C[C@H]4C)nc3c2C(C)C)cn2ncnc2c1C` [Example 864], the IC50 in experiment [1] (setting [4]) stood at 12 nM; in experiment [2] it was 1.5 nM; in experiment [3] (setting [5]), 5690 nM.
Taken in the same sequence, the figures for `Cc1c(-c2[nH]c3ccc(N4[C@H](C)CN(C(C)C)C[C@H]4C)nc3c2C(C)C)cn2ncnc2c1C` [Example 865] were 72 nM, 1.3 nM and 8890 nM.
Taken in the same sequence, the figures for `Cc1c(-c2[nH]c3ccc(N4[C@H](C)CN(CC(N)=O)C[C@H]4C)nc3c2C(C)C)cn2ncnc2c1C` [Example 866] were 74 nM, 3.2 nM and 47600 nM.
In the same order, the values of `Cc1c(-c2[nH]c3ccc(N4C[C@@H](C)N(CC(N)=O)[C@@H](C)C4)nc3c2C(C)C)cn2ncnc2c1C` [Example 867] are 11 nM, 4.5 nM and over 50000 nM.
With `Cc1c(-c2[nH]c3ccc(N4C[C@@H](C)N(CCCS(C)(=O)=O)[C@@H](C)C4)nc3c2C(C)C)cn2ncnc2c1C` [Example 868], the 50% inhibitory concentration (IC50) in experiment [1] (setting [4]) was 6.1 nM; in experiment [2], 12 nM; in experiment [3] (setting [5]), over 50000 nM.
On to `Cc1c(-c2[nH]c3ccc(N4[C@H](C)CN(CCCS(C)(=O)=O)C[C@H]4C)nc3c2C(C)C)cn2ncnc2c1C` [Example 869], for which the figures for the half-maximal inhibitory concentration (IC50) in experiment [1] (setting [4]), in experiment [2] and in experiment [3] (setting [5]) were 34 nM, 1.9 nM and 40300 nM, respectively.
Take `CCN(C)CC(=O)N1CCN(c2ccc3[nH]c(-c4cn5ncnc5c(C)c4C)c(C(C)C)c3n2)CC1` [Example 870]: the IC50 in experiment [1] (setting [4]) amounted to 3.3 nM; in experiment [2], 0.56 nM; in experiment [3] (setting [5]) it was 14400 nM.
For `CCN(CC)CC(=O)N1CCN(c2ccc3[nH]c(-c4cn5ncnc5c(C)c4C)c(C(C)C)c3n2)CC1` [Example 871], the figures for the IC50 in experiment [1] (setting [4]), in experiment [2] and in experiment [3] (setting [5]) were 5.1 nM, 1.6 nM and 12700 nM, respectively.
Consider `Cc1c(-c2[nH]c3ccc(N4CCN(C(=O)CN(C)C(C)C)CC4)nc3c2C(C)C)cn2ncnc2c1C` [Example 872], for which the half-inhibitory concentration (IC50) stood at 3.8 nM in experiment [1] (setting [4]), 0.97 nM in experiment [2] and 9540 nM in experiment [3] (setting [5]).
In the same order, the values of `CCCN(C)CC(=O)N1CCN(c2ccc3[nH]c(-c4cn5ncnc5c(C)c4C)c(C(C)C)c3n2)CC1` [Example 873] are 1.8 nM, 3.1 nM and 12800 nM.
Taken in the same sequence, the figures for `CCCCN(C)CC(=O)N1CCN(c2ccc3[nH]c(-c4cn5ncnc5c(C)c4C)c(C(C)C)c3n2)CC1` [Example 874] were 5.3 nM, 1.2 nM and 15500 nM.
For the compound `Cc1c(-c2[nH]c3ccc(N4CCN(C(=O)CN(C)CC(C)C)CC4)nc3c2C(C)C)cn2ncnc2c1C` [Example 875], the IC50 worked out at 3.2 nM in experiment [1] (setting [4]), 6.6 nM in experiment [2] and 40500 nM in experiment [3] (setting [5]).
In the same order, the values of `CCCCN(CC)CC(=O)N1CCN(c2ccc3[nH]c(-c4cn5ncnc5c(C)c4C)c(C(C)C)c3n2)CC1` [Example 876] are 517 nM, 644 nM and 13300 nM.
Regarding `Cc1c(-c2[nH]c3ccc(N4CCN(C(=O)CNC(C)(C)C)CC4)nc3c2C(C)C)cn2ncnc2c1C` [Example 877], the results for the half-maximal inhibitory concentration (IC50) in experiment [1] (setting [4]), in experiment [2] and in experiment [3] (setting [5]) were 1.6 nM, 1.5 nM and 12600 nM, respectively.
Take `Cc1c(-c2[nH]c3ccc(N4CCN(C(=O)CN(C)C(C)(C)C)CC4)nc3c2C(C)C)cn2ncnc2c1C` [Example 878]: the figures for the 50% inhibitory concentration (IC50) in experiment [1] (setting [4]), in experiment [2] and in experiment [3] (setting [5]) were 2.2 nM, 0.48 nM and 9040 nM, respectively.
In the same order, the values of `CCN(CC(=O)N1CCN(c2ccc3[nH]c(-c4cn5ncnc5c(C)c4C)c(C(C)C)c3n2)CC1)C(C)C` [Example 879] are 3.4 nM, 1 nM and 7550 nM.
Take `Cc1c(-c2[nH]c3ccc(N4CCN(C(=O)CN(CC(C)C)C(C)C)CC4)nc3c2C(C)C)cn2ncnc2c1C` [Example 880]: the IC50 was 30 nM in experiment [1] (setting [4]), 6.4 nM in experiment [2] and 19300 nM in experiment [3] (setting [5]).
Regarding `Cc1c(-c2[nH]c3ccc(N4CCN(C(=O)CN(CC(C)C)CC(C)C)CC4)nc3c2C(C)C)cn2ncnc2c1C` [Example 881], the concentration for half-maximal inhibition (IC50) in experiment [1] (setting [4]) is 68 nM; in experiment [2] it was 25 nM; in experiment [3] (setting [5]), 43500 nM.
In the same order, the values of `CCCCN(CC(=O)N1CCN(c2ccc3[nH]c(-c4cn5ncnc5c(C)c4C)c(C(C)C)c3n2)CC1)C(C)C` [Example 882] are 11 nM, 3.3 nM and 7760 nM.
In the same order, the values of `Cc1c(-c2[nH]c3ccc(N4CCN(C(=O)CN(C(C)C)C(C)C)CC4)nc3c2C(C)C)cn2ncnc2c1C` [Example 883] are 2.3 nM, 7.4 nM and 12500 nM.
Taken in the same sequence, the figures for `Cc1c(-c2[nH]c3ccc(N4C[C@@H](C)N[C@H](C)C4)nc3c2C(C)C)cn2ncnc2c1C` [Example 884] were 0.17 nM, 0.9 nM and 6500 nM.
With `Cc1c(-c2[nH]c3ccc(N4C[C@@H](C)N(C(=O)CN(C)C)[C@H](C)C4)nc3c2C(C)C)cn2ncnc2c1C` [Example 885], the half-inhibitory concentration (IC50) in experiment [1] (setting [4]) stood at 3.8 nM; in experiment [2], 1.6 nM; in experiment [3] (setting [5]), 7850 nM.
Taken in the same sequence, the figures for `Cc1c(-c2[nH]c3ccc(N4C[C@@H](C)N(C(=O)CCN(C)C)[C@H](C)C4)nc3c2C(C)C)cn2ncnc2c1C` [Example 886] were 1.7 nM, 2.8 nM and 2570 nM.
Taken in the same sequence, the figures for `Cc1c(-c2[nH]c3ccc(N4CCN(C(=O)CN(C)C)[C@@H](C)C4)nc3c2C(C)C)cn2ncnc2c1C` [Example 887] were 0.68 nM, 0.5 nM and 8120 nM.
`Cc1c(-c2[nH]c3ccc(N4C[C@@H](C)N(C(=O)CCN5CCC5)C[C@@H]4C)nc3c2C(C)C)cn2ncnc2c1C` [Example 892]: the IC50 in experiment [1] (setting [4]) is 1.4 nM; in experiment [2] it was 0.62 nM; in experiment [3] (setting [5]) it was 3280 nM.
In the same order, the values of `CCN(C)CC(=O)N1C[C@H](C)N(c2ccc3[nH]c(-c4cn5ncnc5c(C)c4C)c(C(C)C)c3n2)C[C@H]1C` [Example 893] are 0.74 nM, 0.34 nM and 7440 nM.
Taken in the same sequence, the figures for `CCCN(C)CC(=O)N1C[C@H](C)N(c2ccc3[nH]c(-c4cn5ncnc5c(C)c4C)c(C(C)C)c3n2)C[C@H]1C` [Example 894] were 0.89 nM, 0.37 nM and 10800 nM.
Taken in the same sequence, the figures for `CCN(CC)CC(=O)N1C[C@H](C)N(c2ccc3[nH]c(-c4cn5ncnc5c(C)c4C)c(C(C)C)c3n2)C[C@H]1C` [Example 895] were 1.1 nM, 0.74 nM and 7930 nM.
With `Cc1c(-c2[nH]c3ccc(N4C[C@@H](C)N(C(=O)CN5CC6(COC6)C5)C[C@@H]4C)nc3c2C(C)C)cn2ncnc2c1C` [Example 896], the IC50 in experiment [1] (setting [4]) was determined as 0.37 nM; in experiment [2] it was 0.69 nM; in experiment [3] (setting [5]), 8440 nM.
In the case of `CCN(C)CC(=O)N1CCN(c2ccc3[nH]c(-c4cn5ncnc5c(C)c4C)c(C(C)C)c3n2)C[C@@H]1C` [Example 897], the figures for the 50% inhibitory concentration (IC50) in experiment [1] (setting [4]), in experiment [2] and in experiment [3] (setting [5]) were 1.5 nM, 0.86 nM and 12000 nM, respectively.
Consider `CCN(CC)CC(=O)N1CCN(c2ccc3[nH]c(-c4cn5ncnc5c(C)c4C)c(C(C)C)c3n2)C[C@@H]1C` [Example 898], for which the values for the IC50 in experiment [1] (setting [4]), in experiment [2] and in experiment [3] (setting [5]) were 3.2 nM, 2.1 nM and 17300 nM, respectively.
Taken in the same sequence, the figures for `Cc1c(-c2[nH]c3ccc(N4CCN(C(=O)CN5CCCC5)[C@@H](C)C4)nc3c2C(C)C)cn2ncnc2c1C` [Example 899] were 1.7 nM, 1 nM and 9780 nM.
In the same order, the values of `Cc1c(-c2[nH]c3ccc(N4CCN(C(=O)CN5CC6(COC6)C5)[C@@H](C)C4)nc3c2C(C)C)cn2ncnc2c1C` [Example 900] are 1.4 nM, 1.1 nM and 15600 nM.
Regarding `Cc1c(-c2[nH]c3ccc(N4CCN(C(=O)CN5CC6(COC6)C5)C[C@@H]4C)nc3c2C(C)C)cn2ncnc2c1C` [Example 901], the half-inhibitory concentration (IC50) in experiment [1] (setting [4]) turned out to be 0.15 nM; in experiment [2] it was 0.72 nM; in experiment [3] (setting [5]), 13300 nM.
In the same order, the values of `CCN(CC)CC(=O)N1CCN(c2ccc3[nH]c(-c4cn5ncnc5c(C)c4C)c(C(C)C)c3n2)[C@@H](C)C1` [Example 902] are 1.4 nM, 1.1 nM and 15800 nM.
